The numbers were not newly measured in patent US20140080710A1, “COMPOSITIONS WITH HOT MELT RESIN MATRIX” (AgroFresh Inc., priority 2012, published 2014), which cites them from elsewhere.

Molecules are shown by their SMILES.

The test system of the data set is ethylene receptor. The settings on record: compared with ethylene.

Take `CC1=CC1` [Sample 1-MCP, 1-methylcyclopropene]: the “affinity for the receptor relative to that of ethylene” value is recorded as “approximately 10 times”.
